The source of these data is patent publication US8618082B2, “Lupeol anti-tumor agent and uses thereof” (Wisconsin Alumni Research Foundation, priority 2004, dated 2013).

The test system of experiment [1] is AsPC-1 cells. The experiment can be described thus: Apoptosis in AsPC-1 cells by fluorescence microscopy and flow cytometry. The format is cell-based. As to conditions: flow cytometry and confocal microscopy. From the text:
FIG. 21 depicts Lupeol induced apoptosis in AsPC-1 cells as assessed by fluorescence microscopy (Upper Panel) and by flow cytometry (Bottom Panel). Upper panel of FIG. 21 contains the representative micrographs of AsPC-1 cells undergoing apoptosis induced by treatment with Lupeol as assessed by fluorescence microscopy (Upper panel).

For experiment [2], the system named is epidermal iNOS protein. The experiment in a line: TPA-induced epidermal iNOS protein expression (western blot). The format is in vivo, mouse. The procedure: FIG. 4. Inhibitory effect of Lupeol on TPA-induced epidermal ODC, iNOS and COX-2 protein expression in CD-1 mice: At different times after treatment, the animals were sacrificed, epidermal protein lysate was prepared, and ODC and COX-2 protein expression were determined. Equal loading of protein was confirmed by stripping the immunoblot and reprobing it for β-actin. The immunoblots shown here are representative of three independent experiments with similar results. The values above each lane indicate relative density of the band normalized to β-actin.
The animals were shaved on the dorsal side of the skin, divided into four groups and treated topically on the shaved area with either 0.4 ml vehicle (acetone), or TPA (3.2 nmol/0.4 ml acetone/animal, v/v), or Lupeol (1 or 2 mg/0.2 ml acetone/animal, w/v) followed 30 min later with TPA (3.2 nmol/0.2 ml acetone/animal). Animals were sacrificed at different times point i.e. 6, 12, 24 and 48 h post TPA treatment. […]
Epidermis from the whole skin was separated as described earlier (Katiyar et al., 1999) and was homogenized in ice-cold lysis buffer [50 mM Tris-HCl, 150 mM NaCl, 1 mM EGTA, 1 mM EDTA, 20 mM NaF, 100 mM Na3VO4, 0.5% NP-40, 1% Triton X-100, 1 mM PMSF (pH 7.4)] with freshly added protease inhibitor cocktail, Protease Inhibitor Cocktail Set III (Calbiochem, La Jolla, Calif., USA). […] The protein content in the lysates was measured by DC BioRad assay (BioRad Laboratories, Hercules, Calif.) as per the manufacturer's protocol.
For western blot analysis, 40 μg of the protein was resolved over 8-12% polyacrylamide gels and transferred to a nitrocellulose membrane. […] This was followed by incubation with anti-mouse or anti-rabbit secondary antibody horse-radish peroxidase (Amersham Life Sciences, Inc., USA) for 1 h and then washed several times and detected by chemiluminescence ECL kit, (Amersham Life Sciences, Inc., USA) and autoradiography using XAR-5 film obtained from Eastman Kodak Co. (Rochester, N.Y., USA). […]
A general note: A western blot detects proteins with antibodies after separation by electrophoresis.

Experiment [3] deals with normal human prostate epithelial cells (PrEC). The experiment in a line: Viability of normal human prostate epithelial cells, MTT assay. It is filed as cell-based. The following applies: 48 hours. The procedure:
FIG. 9 depicts effect of Lupeol on viability of normal human prostate epithelial cells (PrEC). Cells were treated with specified concentrations of Lupeol for 48 h, and cell viability was determined by MTT (3-[4,5-dimethylthiazol-2-yl]-2,5-diphenyl tetrazoliumbromide) assay. The values are represented as the percent viable cells where vehicle-treated cells were regarded as 100% viable. Data represents mean value of percent viable cells±S.E of three independent experiments.
Background: Tetrazolium assays rely on reduction of a dye to a coloured formazan, in cell work by metabolically active cells.

Experiment [4] concerns Ras, PKCα, ODC, pAkt in AsPC-1 cells. The experiment in a line: Ras, PKCα, ODC, PI3K, pAkt expression in AsPC-1 cells. It is filed as cell-based. From the text:
FIG. 23 depicts effect of Lupeol treatment on the expression of Ras, PKCα, ODC, PI3K (P85), pAkt and total Akt, p38 and Erk1/2 proteins in AsPC-1 cells.

`C=C(C)[C@@H]1CC[C@]2(C)CC[C@]3(C)[C@H](CC[C@@H]4[C@@]5(C)CC[C@H](O)C(C)(C)[C@@H]5CC[C@]43C)[C@@H]12` [Lupeol, Lup-20(29)-en-3β-ol]: the “induction of apoptosis in ASPC-1 cells” value in experiment [1] is “inducing apoptosis”. Moreover, in experiment [2] (Lupeol 2 mg/animal), the “inhibition against TPA-induced epidermal iNOS protein expression (densitometry)” value turned out to be 74%. Further, the “epidermal iNOS protein expression after Lupeol alone” value in experiment [2] (Lupeol alone 2 mg) is given as “did not produce any change”. For the same compound, the “cell death of normal prostate epithelial cells” value in experiment [3] (60 μM Lupeol) came to 30%. The “cell death of normal prostate epithelial cells” value in experiment [3] (Lupeol up to 50 μM) is “did not exhibit any significant cell death”. Also, in experiment [4], the “expression of Ras protein” value is “decrease”, the “phosphorylation of Akt” value was “reduction in the phosphorylation of Akt”, the “protein expression of ODC” value was “significant reduction” and the “protein expression of PKCa” value is recorded as “significant reduction”.
